This experiment has as its target T1, Full length human recombinant HDAC6 protein (Homo sapiens, UniProt Q9UBN7).
T1 sequence (Q9UBN7 1-1215): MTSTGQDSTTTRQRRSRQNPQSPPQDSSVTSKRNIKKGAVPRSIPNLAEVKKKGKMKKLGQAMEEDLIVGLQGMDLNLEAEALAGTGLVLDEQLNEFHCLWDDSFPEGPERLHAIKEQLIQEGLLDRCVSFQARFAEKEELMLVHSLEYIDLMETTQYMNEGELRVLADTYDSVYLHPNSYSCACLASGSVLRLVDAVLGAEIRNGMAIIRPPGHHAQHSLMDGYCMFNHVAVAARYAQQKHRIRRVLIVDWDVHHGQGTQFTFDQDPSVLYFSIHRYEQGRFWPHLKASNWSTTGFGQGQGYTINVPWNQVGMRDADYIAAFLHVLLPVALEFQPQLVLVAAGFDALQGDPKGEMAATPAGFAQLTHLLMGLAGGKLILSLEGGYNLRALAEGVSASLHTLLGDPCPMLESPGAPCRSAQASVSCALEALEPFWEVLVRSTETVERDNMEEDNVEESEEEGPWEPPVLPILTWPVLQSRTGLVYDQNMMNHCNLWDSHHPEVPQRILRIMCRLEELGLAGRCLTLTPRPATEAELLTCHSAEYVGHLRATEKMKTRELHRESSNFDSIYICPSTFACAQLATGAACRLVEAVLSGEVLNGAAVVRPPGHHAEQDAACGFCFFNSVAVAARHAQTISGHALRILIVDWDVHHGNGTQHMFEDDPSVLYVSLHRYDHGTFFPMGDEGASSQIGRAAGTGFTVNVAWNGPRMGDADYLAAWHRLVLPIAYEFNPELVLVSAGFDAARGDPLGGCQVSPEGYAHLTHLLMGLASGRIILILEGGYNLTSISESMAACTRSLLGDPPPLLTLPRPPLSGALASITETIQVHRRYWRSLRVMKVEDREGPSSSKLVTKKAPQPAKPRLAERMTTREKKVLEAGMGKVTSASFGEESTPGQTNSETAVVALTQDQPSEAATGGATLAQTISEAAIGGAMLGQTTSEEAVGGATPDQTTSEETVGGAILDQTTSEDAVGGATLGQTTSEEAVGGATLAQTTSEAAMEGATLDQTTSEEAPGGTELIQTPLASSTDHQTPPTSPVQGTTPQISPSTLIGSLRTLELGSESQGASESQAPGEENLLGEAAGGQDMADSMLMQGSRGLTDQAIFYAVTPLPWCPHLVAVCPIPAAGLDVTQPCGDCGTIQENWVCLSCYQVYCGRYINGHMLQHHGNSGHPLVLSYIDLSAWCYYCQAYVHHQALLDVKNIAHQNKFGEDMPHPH
As to the kind of experiment: In vitro histone deacetylase assay: enzymatic HDAC6 electrophoretic mobility shift assay. The following applies: 1 nM enzyme, 2 μM peptide substrate RHKK(Ac)-NH2, 25° C., 12 concentrations; read-out: Inhibitory Concentration (IC50) Values against HDAC6, Activity Range. The class given is biochemical. Here is the method: The enzymatic HDAC6 assay was performed using electrophoretic mobility shift assay. […] The enzymatic reactions were assembled in 384 well plates in a total volume of 25 μL in a reaction buffer composing: 100 mM HEPES, pH7.5, 25 mM KCl, 0.1% bovine serum albumin, 0.01% Triton X-100, 1% DMSO (from compounds) 2 μM of the fluorescently labeled peptide substrate and enzyme. The enzyme was added at a final concentration of 1 nM. The peptide substrate RHKK(Ac)—NH2 was used. The compounds were tested at 12 concentrations spaced by 3× dilution intervals. Negative control samples ([…] in the absence of inhibitor) and positive control samples (100%-inhibition) were assembled in replicates of four in each assay plate. The reactions were incubated at 25° C. and quenched by the addition of 45 μL of termination buffer (100 mM HEPES, pH 7.5, 0.01% Triton X-100, 0.05% SDS).
The terminated assay plates were analyzed on LabChip® 3000 microfluidic electrophoresis instrument (Perkin Elmer/Caliper Life Sciences). The fluorescence intensity of the electrophoretically separated de-acetylated product and substrate peptide was measured. Activity in each sample was determined as the product to sum ratio (PSR): P/(S+P), where P is the peak height of the product peptide and S is the peak height of the substrate peptide. Percent inhibition (Pinh) is determined using the following equation:
Pinh=(PSR0%−PSRinh)/(PSR0%−PSR100%)*100, where PSRinh is the product sum ratio in the presence of inhibitor, PSR0% is the average product sum ration in the absence of inhibitor and PSR100% is the average product sum ratio in 100%-inhibition control samples. The IC50 values of inhibitors were determined by fitting the %-inhibition curves with 4 parameter dose-response model using XLfit 4 software.

Regarding `O=C(NO)c1ccc2c(c1)OCCN(C(=O)CC1CC1)C2` [4-(2-cyclopropylacetyl)-N-hydroxy-2,3,4,5-tetrahydrobenzo[f][1,4]oxazepine-8-carboxamide], the IC50 was no more than 100 nM.

In the case of `C[C@H]1COc2cc(C(=O)NO)ccc2CN1C(=O)c1ccc(F)cc1` [(S)-4-(4-fluorobenzoyl)-N-hydroxy-3-methyl-2,3,4,5-tetrahydrobenzo[f][1,4]oxazepine-8-carboxamide], the IC50 is no more than 100 nM.

Regarding `COCCC(=O)N1Cc2ccc(C(=O)NO)cc2OC[C@@H]1C` [(S)-N-hydroxy-4-(3-methoxypropanoyl)-3-methyl-2,3,4,5-tetrahydrobenzo[f][1,4]oxazepine-8-carboxamide], the IC50 is no more than 100 nM.

For the compound `COc1ccc(OCC(=O)N2CCOc3cc(C(=O)NO)ccc3C2)cc1` [N-hydroxy-4-(2-(4-methoxyphenoxy)acetyl)-2,3,4,5-tetrahydrobenzo[f][1,4]oxazepine-8-carboxamide], the IC50 was no more than 100 nM.

Turning to `COc1ccc(CC(=O)N2CCOc3ccc(C(=O)NO)cc3C2)cc1` [N-hydroxy-4-(2-(4-methoxyphenyl)acetyl)-2,3,4,5-tetrahydrobenzo[f][1,4]oxazepine-7-carboxamide], the IC50 is greater than 500 nM.

With `C[C@H]1COc2cc(C(=O)NO)ccc2CN1C(=O)C1CCC(C)(C)O1` (stereo partly drawn) [(3S)-4-(5,5-dimethyltetrahydrofuran-2-carbonyl)-N-hydroxy-3-methyl-2,3,4,5-tetrahydrobenzo[f][1,4]oxazepine-8-carboxamide], the IC50 is no more than 100 nM.

With `COC[C@@H]1COc2cc(C(=O)NO)ccc2CN1C(=O)C1CCOCC1` [(R)-N-hydroxy-3-(methoxymethyl)-4-(tetrahydro-2H-pyran-4-carbonyl)-2,3,4,5-tetrahydrobenzo[f][1,4]oxazepine-8-carboxamide], the IC50 is greater than 500 nM.

Take `C[C@H]1COc2cc(C(=O)NO)ccc2CN1C(=O)[C@@H]1CCCOC1` [(S)-N-hydroxy-3-methyl-4-((R)-tetrahydro-2H-pyran-3-carbonyl)-2,3,4,5-tetrahydrobenzo[f][1,4]oxazepine-8-carboxamide]: the IC50 was no more than 100 nM.

Consider `COc1ccccc1C(C)(C)C(=O)N1CCOc2cc(C(=O)NO)ccc2C1` [N-hydroxy-4-(2-(2-methoxyphenyl)-2-methylpropanoyl)-2,3,4,5-tetrahydrobenzo[f][1,4]oxazepine-8-carboxamide], for which the IC50 was greater than 500 nM.

Take `C[C@H]1COc2cc(C(=O)NO)ccc2CN1C(=O)C1CCOCC1` [(S)-N-hydroxy-3-methyl-4-(tetrahydro-2H-pyran-4-carbonyl)-2,3,4,5-tetrahydrobenzo[f][1,4]oxazepine-8-carboxamide]: the IC50 was no more than 100 nM.

Regarding `CC(C)[C@@H]1c2ccc(C(=O)NO)cc2OCCN1C(=O)C1COC1` [(R)-N-hydroxy-5-isopropyl-4-(oxetane-3-carbonyl)-2,3,4,5-tetrahydrobenzo[f][1,4]oxazepine-8-carboxamide], the IC50 is greater than 500 nM.

`O=C(NO)c1ccc2c(c1)OCCN(C(=O)Cc1ccccc1Oc1ccccc1)C2` [N-hydroxy-4-(2-(2-phenoxyphenyl)acetyl)-2,3,4,5-tetrahydrobenzo[f][1,4]oxazepine-8-carboxamide]: the IC50 was greater than 500 nM.

`C[C@H]1COc2cc(C(=O)NO)ccc2CN1C(=O)C(C)(C)c1ccc(F)cc1` [(S)-4-(2-(4-fluorophenyl)-2-methylpropanoyl)-N-hydroxy-3-methyl-2,3,4,5-tetrahydrobenzo[f][1,4]oxazepine-8-carboxamide]: the IC50 is no more than 100 nM.

As to `C[C@H]1COc2cc(C(=O)NO)ccc2CN1C(=O)[C@H]1C[C@H](Oc2ccccc2)C1` (single isomer, unassigned), the IC50 was no more than 100 nM.

In the case of `CC(C)[C@H]1c2ccc(C(=O)NO)cc2OCCN1C(=O)C1COC1` [(S)-N-hydroxy-5-isopropyl-4-(oxetane-3-carbonyl)-2,3,4,5-tetrahydrobenzo[f][1,4]oxazepine-8-carboxamide], the IC50 is greater than 500 nM.

As for `CC(C)[C@@H]1C[C@@H](C(=O)N2Cc3ccc(C(=O)NO)cc3OC[C@@H]2C)CCO1` [(S)-N-hydroxy-4-((2S,4S)-2-isopropyltetrahydro-2H-pyran-4-carbonyl)-3-methyl-2,3,4,5-tetrahydrobenzo[f][1,4]oxazepine-8-carboxamide], the IC50 was no more than 100 nM.

Take `CC(C(=O)N1CCOc2cc(C(=O)NO)ccc2C1)N1CCS(=O)(=O)CC1` (centres unmarked) [4-(2-(1,1-dioxidothiomorpholino)propanoyl)-N-hydroxy-2,3,4,5-tetrahydrobenzo[f][1,4]oxazepine-8-carboxamide]: the IC50 is greater than 500 nM.

Regarding `O=C(NO)c1ccc2c(c1)O[C@H](c1ccccc1)CN(C(=O)C1CCOCC1)C2` [(R)-N-hydroxy-2-phenyl-4-(tetrahydro-2H-pyran-4-carbonyl)-2,3,4,5-tetrahydrobenzo[f][1,4]oxazepine-8-carboxamide], the IC50 fell in the range of 100 to 500 nM.

Consider `C[C@H]1c2ccc(C(=O)NO)cc2OCCN1C(=O)C1(C)CCOCC1` [(S)-N-hydroxy-5-methyl-4-(4-methyltetrahydro-2H-pyran-4-carbonyl)-2,3,4,5-tetrahydrobenzo[f][1,4]oxazepine-8-carboxamide], for which the IC50 was no more than 100 nM.

On to `CC1(C(=O)N2CCOc3cc(C(=O)NO)ccc3C2)CCCCC1` [N-hydroxy-4-(1-methylcyclohexane-1-carbonyl)-2,3,4,5-tetrahydrobenzo[f][1,4]oxazepine-8-carboxamide], for which the IC50 was no more than 100 nM.

For the compound `O=C(NO)c1ccc2c(c1)OC[C@H](Cc1ccccc1)N(C(=O)C1CCOCC1)C2` [(S)-3-benzyl-N-hydroxy-4-(tetrahydro-2H-pyran-4-carbonyl)-2,3,4,5-tetrahydrobenzo[f][1,4]oxazepine-8-carboxamide], the IC50 was no more than 100 nM.

Turning to `C[C@H]1COc2cc(C(=O)NO)ccc2CN1C(=O)CC1CCCO1` (stereo partly drawn) [(3S)-N-hydroxy-3-methyl-4-(2-(tetrahydrofuran-2-yl)acetyl)-2,3,4,5-tetrahydrobenzo[f][1,4]oxazepine-8-carboxamide], the IC50 is no more than 100 nM.

`O=C(NO)c1ccc2c(c1)OCCN(C(=O)C1(c3cccc(C(F)(F)F)c3)CC1)C2` [N-hydroxy-4-(1-(3-(trifluoromethyl)phenyl)cyclopropane-1-carbonyl)-2,3,4,5-tetrahydrobenzo[f][1,4]oxazepine-8-carboxamide]: the IC50 is no more than 100 nM.

Regarding `CO[C@H]1C[C@H](C(=O)N2Cc3ccc(C(=O)NO)cc3OC[C@@H]2C)C1`, the IC50 is no more than 100 nM.

For the compound `CC(C)[C@@H]1c2ccc(C(=O)NO)cc2OCCN1C(=O)C1CCOCC1` [(R)-N-hydroxy-5-isopropyl-4-(tetrahydro-2H-pyran-4-carbonyl)-2,3,4,5-tetrahydrobenzo[f][1,4]oxazepine-8-carboxamide], the IC50 was greater than 500 nM.

Take `O=C(NO)c1ccc2c(c1)OCCN(C(=O)C1(c3cccc(Cl)c3)CC1)C2` [4-(1-(3-chlorophenyl)cyclopropane-1-carbonyl)-N-hydroxy-2,3,4,5-tetrahydrobenzo[f][1,4]oxazepine-8-carboxamide]: the IC50 was no more than 100 nM.
